Laboratory results published in US20260200919A1, “SUBSTITUTED AMINOPYRIDINE COMPOUNDS AND METHODS OF TREATING DISEASE USING SAME” (Atavistik Bio, Inc., priority 2023, published 2026).

Experiments:
[1] = molecular target: T1, human recombinant kinase full-length wildtype AKT1 (Homo sapiens, UniProt P31749); assay: AKT1 kinase assay (wildtype, TR-FRET, Lance); format: biochemical; settings: 0.6 nM wildtype AKT1, 50 nM Ulight-CREBtide, either 50 μM ATP or 2 mM ATP (not specified which), 60 min at RT
T1 construct: Purified human recombinant kinase full-length wildtype AKT1 was expressed in insect cells; made in house; host or cells: insect cells
Method: AKT1 kinase assay: Inhibitory effects of compounds on wildtype AKT1 were undertaken in a 10-pt dose response kinase activity assay measuring phospho-peptide product formation based on TR-FRET signal as described in the following paragraph.
(§1) Purified human recombinant kinase full-length wildtype AKT1 was expressed in insect cells and activated in vitro by PDPK1. Ulight™—CREBtide (PerkinElmer, catalog number TRF0107) was used as the peptide substrate. The reaction buffer consisted of 50 mM HEPES pH 7.5, 10 mM MgCl2, 0.01% Triton X-100, 0.01% BSA, 2 mM DTT, 0.6 nM AKT1, 50 nM Ulight™-CREBtide and either 50 μM ATP or 2 mM ATP. The compound solution was prepared as 10 mM DMSO stock. […] Final DMSO concentration in the assay was 1%. […] The reaction was stopped after 60 min of incubation at RT by the addition of 10 μL of Detection Mix (PerkinElmer, #CR97-100) consisting of Europium-anti-phospho-CREB (Ser133) (Perkin Elmer, catalog numberTRF0200). Incubation with the detection mix for a further 60 min allowed binding of antibody to the phospho-Ulight™ CREBtide. The fluorescence emissions at 620 nm and 665 nm after excitation at […] was measured using Envision reader. The ratio of the emissions at 665 nm and at 620 nm provided the measure for the amount of phosphorylated CREBtide product of AKT1 kinase activity.

[2] = molecular target: T2, human recombinant kinase full-length AKT1 E17K (Homo sapiens, UniProt P31749, E17K); assay: AKT1 E17K kinase assay (TR-FRET, Lance); format: biochemical; settings: 0.6 nM AKT1 E17K, 50 nM Ulight-CREBtide, either 50 μM ATP or 2 mM ATP (not specified which), 60 min at RT
T2 construct: Purified human recombinant kinase full-length AKT1 E17K was expressed in insect cells; made in house; host or cells: insect cells
Method: AKT1 E17K kinase assay: Inhibitory effects of compounds on AKT1 E17K were undertaken in a 10-pt dose response kinase activity assay measuring phospho-peptide product formation based on TR-FRET signal as described in the following paragraph.
as §1, with “full-length” for “full-length wildtype”, “AKT1 E17K” for “AKT1”, “Ulight™-CREBtide” for “Ulight™—CREBtide”, “AKT1 E17K,” for “AKT1,”, “nM. Ulight™ CREBtide” for “nM Ulight™-CREBtide”

T1 sequence (P31749 whole entry): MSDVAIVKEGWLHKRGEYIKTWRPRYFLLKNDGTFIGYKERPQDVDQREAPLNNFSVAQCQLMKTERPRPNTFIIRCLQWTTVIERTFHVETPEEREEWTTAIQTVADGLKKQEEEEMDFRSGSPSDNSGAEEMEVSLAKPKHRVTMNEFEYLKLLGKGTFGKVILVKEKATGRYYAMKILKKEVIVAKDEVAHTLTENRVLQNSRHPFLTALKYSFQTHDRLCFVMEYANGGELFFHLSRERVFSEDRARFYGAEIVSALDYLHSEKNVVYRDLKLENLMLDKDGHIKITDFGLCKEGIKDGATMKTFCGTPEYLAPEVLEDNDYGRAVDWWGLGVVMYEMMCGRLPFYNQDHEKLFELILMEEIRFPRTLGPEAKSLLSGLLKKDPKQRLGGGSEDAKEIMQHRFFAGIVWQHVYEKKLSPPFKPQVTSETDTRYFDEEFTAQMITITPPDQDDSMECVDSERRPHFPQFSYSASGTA
T2 sequence (P31749 whole entry E17K): as the sequence (P31749 whole entry) above, with E17K counted along it

SMILES | IC50 [1] | IC50 [2]
Nc1ncccc1-c1nc2ccc(-c3ccccc3)nc2n1-c1ccc(NC(=O)c2cccc(C(=O)O)c2)cc1 [Compound 54, 3-[[4-[2-(2-amino-3-pyridyl)-5-phenyl-imidazo[4,5-b]pyridin-3-yl]phenyl]carbamoyl]benzoic acid] | < 500 nM | < 50 nM
Nc1ncccc1-c1nc2ccc(-c3ccccc3)nc2n1-c1ccc(NC(=O)c2cccc(C(=O)O)c2F)cc1 [Compound 55, 3-[[4-[2-(2-amino-3-pyridyl)-5-phenyl-imidazo[4,5-b]pyridin-3-yl]phenyl]carbamoyl]-2-fluoro-benzoic acid] | < 500 nM | < 50 nM
Nc1ncccc1-c1nc2ccc(-c3ccccc3)nc2n1-c1ccc(NC(=O)c2cccc(CC(=O)O)c2)cc1 [Compound 56, 2-(3-((4-(2-(2-aminopyridin-3-yl)-5-phenyl-3H-imidazo[4,5-b]pyridin-3-yl)phenyl)carbamoyl)phenyl)acetic acid] | < 500 nM | < 50 nM
Nc1ncccc1-c1nc2ccc(-c3ccccc3)nc2n1-c1ccc(NC(=O)c2cccc(CCC(=O)O)c2)cc1 [Compound 57, 3-(3-((4-(2-(2-aminopyridin-3-yl)-5-phenyl-3H-imidazo[4,5-b]pyridin-3-yl)phenyl)carbamoyl)phenyl) propanoic acid] | < 500 nM | < 50 nM
Nc1ncccc1-c1nc2ccc(-c3ccccc3)nc2n1-c1ccc(NCc2ccc(C(=O)O)cc2)cc1 [Compound 58, 4-[[4-[2-(2-amino-3-pyridyl)-5-phenyl-imidazo[4,5-b]pyridin-3-yl]anilino]methyl]benzoic acid] | < 500 nM | 50 to 200 nM
Nc1ncccc1-c1nc2ccc(-c3ccccc3)nc2n1-c1ccc(NC(=O)c2ccc(C(=O)O)cc2)nc1 [Compound 59, 4-((5-(2-(2-aminopyridin-3-yl)-5-phenyl-3H-imidazo[4,5-b]pyridin-3-yl)pyridin-2-yl)carbamoyl)benzoic acid] | < 500 nM | < 50 nM
Nc1ncccc1-c1nc2ccc(-c3ccccc3)nc2n1-c1ccc(NC(=O)c2cccc(C(=O)O)c2)nc1 [Compound 60, 3-((5-(2-(2-aminopyridin-3-yl)-5-phenyl-3H-imidazo[4,5-b]pyridin-3-yl)pyridin-2-yl)carbamoyl)benzoic acid] | < 500 nM | < 50 nM
Nc1ncccc1-c1nc2ccc(-c3ccccc3)nc2n1-c1ccc(NC(=O)c2cccc(C(=O)O)c2F)nc1 [Compound 61, 3-((5-(2-(2-aminopyridin-3-yl)-5-phenyl-3H-imidazo[4,5-b]pyridin-3-yl)pyridin-2-yl)carbamoyl)-2-fluorobenzoic acid] | < 500 nM | 50 to 200 nM
Nc1ncccc1-c1nc2ccc(-c3ccccc3)nc2n1-c1ccc(NC(=O)c2ccc(C(=O)O)cc2F)nc1 [Compound 62, 4-((5-(2-(2-aminopyridin-3-yl)-5-phenyl-3H-imidazo[4,5-b]pyridin-3-yl)pyridin-2-yl)carbamoyl)-3-fluorobenzoic acid] | < 500 nM | 50 to 200 nM
Cc1cc(C(=O)O)ccc1C(=O)Nc1ccc(-n2c(-c3cccnc3N)nc3ccc(-c4ccccc4)nc32)cn1 [Compound 63, 4-[[5-[2-(2-amino-3-pyridyl)-5-phenyl-imidazo[4,5-b]pyridin-3-yl]-2-pyridyl]carbamoyl]-3-methyl-benzoic acid] | < 500 nM | 200 to 500 nM
Nc1ncccc1-c1nc2ccc(-c3ccccc3)nc2n1-c1ccc(NC(=O)c2cccc(CC(=O)O)c2)nc1 [Compound 64, 2-(3-((5-(2-(2-aminopyridin-3-yl)-5-phenyl-3H-imidazo[4,5-b]pyridin-3-yl)pyridin-2-yl)carbamoyl)phenyl) acetic acid] | < 500 nM | < 50 nM
Nc1ncccc1-c1nc2ccc(-c3ccccc3)nc2n1-c1ccc(NC(=O)c2cccc(C(=O)O)c2F)c(F)c1 [Compound 65, 3-((4-(2-(2-aminopyridin-3-yl)-5-phenyl-3H-imidazo[4,5-b]pyridin-3-yl)-2-fluorophenyl)carbamoyl)-2-fluorobenzoic acid] | < 500 nM | 200 to 500 nM
Cc1cc(C(=O)O)ccc1C(=O)Nc1ccc(-n2c(-c3cccnc3N)nc3ccc(-c4ccccc4)nc32)cc1F [Compound 66, 4-((4-(2-(2-aminopyridin-3-yl)-5-phenyl-3H-imidazo[4,5-b]pyridin-3-yl)-2-fluorophenyl)carbamoyl)-3-methylbenzoic acid] | > 500 nM | 200 to 500 nM
Nc1ncccc1-c1nc2ccc(-c3ccccc3)nc2n1-c1ccc(NC(=O)c2cccc(CC(=O)O)c2)c(F)c1 [Compound 67, 2-(3-((4-(2-(2-aminopyridin-3-yl)-5-phenyl-3H-imidazo[4,5-b]pyridin-3-yl)-2-fluorophenyl)carbamoyl)phenyl) acetic acid] | < 500 nM | 50 to 200 nM
Nc1ncccc1-c1nc2ccc(-c3ccccc3)nc2n1-c1ccc(NCc2ccc(C(=O)O)cc2F)nc1 [Compound 68, 4-[[[5-[2-(2-amino-3-pyridyl)-5-phenyl-imidazo[4,5-b]pyridin-3-yl]-2-pyridyl]amino]methyl]-3-fluoro-benzoic acid] | < 500 nM | 50 to 200 nM
COC(=O)c1ccc(C(=O)N2CC(c3ccc(-n4c(-c5cccnc5N)nc5ccc(-c6ccccc6)nc54)cc3)C2)cc1 [Compound 69, methyl 4-(3-(4-(2-(2-aminopyridin-3-yl)-5-phenyl-3H-imidazo[4,5-b]pyridin-3-yl)phenyl)azetidine-1-carbonyl)benzoate] | < 500 nM | > 500 nM
Nc1ncccc1-c1nc2ccc(-c3ccccc3)nc2n1-c1ccc(C2CN(C(=O)c3ccc(C(=O)O)cc3)C2)cc1 [Compound 70, 4-(3-(4-(2-(2-aminopyridin-3-yl)-5-phenyl-3H-imidazo[4,5-b]pyridin-3-yl)phenyl)azetidine-1-carbonyl)benzoic acid] | < 500 nM | < 50 nM
COC(=O)c1cccc(C(=O)N2CC(c3ccc(-n4c(-c5cccnc5N)nc5ccc(-c6ccccc6)nc54)cc3)C2)c1 [Compound 71, methyl 3-(3-(4-(2-(2-aminopyridin-3-yl)-5-phenyl-3H-imidazo[4,5-b]pyridin-3-yl)phenyl)azetidine-1-carbonyl)benzoate] | < 500 nM | 50 to 200 nM
Nc1ncccc1-c1nc2ccc(-c3ccccc3)nc2n1-c1ccc(C2CN(C(=O)c3cccc(C(=O)O)c3)C2)cc1 [Compound 72, 3-(3-(4-(2-(2-aminopyridin-3-yl)-5-phenyl-3H-imidazo[4,5-b]pyridin-3-yl)phenyl)azetidine-1-carbonyl)benzoic acid] | < 500 nM | 50 to 200 nM
COC(=O)c1ccccc1C(=O)N1CC(c2ccc(-n3c(-c4cccnc4N)nc4ccc(-c5ccccc5)nc43)cc2)C1 [Compound 73, methyl 2-(3-(4-(2-(2-aminopyridin-3-yl)-5-phenyl-3H-imidazo[4,5-b]pyridin-3-yl)phenyl)azetidine-1-carbonyl)benzoate] | < 500 nM | > 500 nM
Nc1ncccc1-c1nc2ccc(-c3ccccc3)nc2n1-c1ccc(C2CN(C(=O)c3ccccc3C(=O)O)C2)cc1 [Compound 74, 2-(3-(4-(2-(2-aminopyridin-3-yl)-5-phenyl-3H-imidazo[4,5-b]pyridin-3-yl)phenyl)azetidine-1-carbonyl)benzoic acid] | > 500 nM | > 500 nM
Cc1cc(C(=O)O)ccc1C(=O)N1CC(c2ccc(-n3c(-c4cccnc4N)nc4ccc(-c5ccccc5)nc43)cc2)C1 [Compound 75, 4-(3-(4-(2-(2-aminopyridin-3-yl)-5-phenyl-3H-imidazo[4,5-b]pyridin-3-yl)phenyl)azetidine-1-carbonyl)-3-methylbenzoic acid] | < 500 nM | < 50 nM
